The source of these data is patent US20150139957A1, “GROWTH ENHANCING ADDITIVE FROM POMEGRANATE PLANT FOR POULTRY FEED” (GANIR (1992) LTD., priority 2012, published 2015).

The subject of experiment [1] is Ross male broilers. In words: Example 2: broiler trial testing the efficacy of a taste masking agent. The format is in vivo. The settings on record: alternative probiotic growth additive, treatment 5. From the text:
The objective of this trial was to test the efficacy of a taste masking agent. The trial examined the performance parameters in 2000 Ross male broilers randomly divided into 5 treatment groups. All broilers were fed mash feed ad libitum. Treatment 1, negative control, without addition of any growth promoter in feed, treatment 2, positive control with an antibiotic growth promoter avilamycin (Maxus™), treatment 3 received 2 kg additive PE1 of the invention per ton feed, treatment 4 received 2 kg additive PE1 of the invention per ton feed with a taste masking agent including thaumatin, and treatment 5 received an alternative probiotic growth additive (lactobacillus). Use of the masking agents improved broiler body weight results from 28-44 d period by 4.2% (1480 g vs 1420 g). Final body weight results at 44 d was improved by 3.6% in those broilers that received the masking agent as compared to those without. (2748 vs 2652). Feed conversion improved by 5.4% in those broilers receiving masking agent (1.84 instead of 1.94 kg/kg).

For experiment [2], the system named is Ross male broilers. In words: Example 1: 42 d broiler trial, antibiotic in the feed present, absent or replaced. In kind it is in vivo. The settings on record: PE1 4 kg per ton feed. As to the method:
The effects of presence/absence/replacement of the antibiotics in the feed were examined. A group of 2000 Ross male broilers were randomly divided into four treatments and fed a mesh diet ad libitum. […] Body weight, feed intake and mortality were measured during the 42 d broiler trial. At the end of the trial, feed conversion was calculated and % cumulative mortality was recorded. Results indicated a 4.1% improved feed conversion in those birds which received an antibiotic growth promoter (Maxus™), compared to negative control (1.758 and 1.834 respectively). The addition of pomegranate extract powder improved feed conversion by 4.9% as compared to negative control treatment (1.744 and 1.834 respectively). Mortality results at end of trial were as follows: negative control 4.1%, antibiotic growth promoter 3.6% and pomegranate extract powder 1.4%.

In the case of lactobacillus, in the experiment with Ross male broilers [1], the “body weight throughout the trial versus both pomegranate extract groups” value is given as “consistently lower”.

`COC[C@H]1O[C@@H](OC2OC[C@@H]3O[C@]4(O[C@H]3[C@H]2OC(=O)C(C)C)O[C@H](C)[C@@](O)(C(C)=O)[C@@H]2OCO[C@H]24)[C@@H](OC)[C@@H](O)[C@@H]1O[C@@H]1O[C@H](C)[C@H](OC)[C@H](O[C@H]2C[C@@]3(C)OC4(C[C@@H](O)[C@H](O[C@H]5C[C@@H](O)[C@H](OC(=O)c6c(C)c(Cl)c(O)c(Cl)c6OC)[C@@H](C)O5)[C@@H](C)O4)O[C@@H]3[C@@H](C)O2)[C@H]1O` (stereo partly shown) [avilamycin]: the “cumulative mortality at end of trial” value in the experiment on Ross male broilers [2] (42 d trial, negative control 4.1%) was found to be 3.6%. Also, the “improved feed conversion compared to negative control” value in the experiment with Ross male broilers [2] (end of 42 d trial, diet ad libitum) stood at 4.1%. In addition, the feed conversion with Ross male broilers [2] (end of 42 d trial, negative control 1.834) came to 1.758.
